The values below come from patent US20110224247A1, “AZAISOQUINOLINONE DERIVATIVES AS NK3 ANTAGONISTS” (H. LUNDBECK A/S, priority 2010, published 2011).

One series concerns the target T1, human NK3 receptor (Homo sapiens, UniProt P29371).
T1 construct: expressed in transfected cells; membranes prepared
T1 sequence (P29371 1-465): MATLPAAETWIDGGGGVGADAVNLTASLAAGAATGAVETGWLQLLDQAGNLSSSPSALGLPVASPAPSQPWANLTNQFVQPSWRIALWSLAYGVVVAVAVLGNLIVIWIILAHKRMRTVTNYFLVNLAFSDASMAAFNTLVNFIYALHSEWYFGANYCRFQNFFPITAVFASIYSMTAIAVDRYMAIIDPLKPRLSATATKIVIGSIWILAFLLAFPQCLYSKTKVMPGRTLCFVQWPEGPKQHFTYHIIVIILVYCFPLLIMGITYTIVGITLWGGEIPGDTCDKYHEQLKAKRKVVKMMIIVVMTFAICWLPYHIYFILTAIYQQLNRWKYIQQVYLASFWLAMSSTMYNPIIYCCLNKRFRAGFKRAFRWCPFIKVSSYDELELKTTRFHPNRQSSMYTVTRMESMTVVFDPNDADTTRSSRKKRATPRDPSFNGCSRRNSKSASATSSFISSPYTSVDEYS
The experiment in a line: NK3 receptor binding assay. To be noted: filter-based competition binding vs ~0.05 nM 3H-AE93103, membranes of BHK cells expressing human NK3; Ki by Cheng Prusoff; read-out: Affinity (Ki/nM). As for the experimental part: Membranepreparation: BHK cells stably expressing the human NK3 receptor were seeded in harvesting plates in Dulbeccos MEM containing GlutaMax (862 mg/l), 1 mM sodium pyruvate, 10% fetal calf serum, 1% Pen/Strep, 1 mg/ml G418 and were grown at 34° C. in a humidified atmosphere containing 10% CO2. To increase receptor expression, 10 μM trichotatin A was added to the media 24 hours before harvest of the cells at a confluency of app 90%. Prior to the harvesting, the cells were washed twice with PBS without Mg^2+ and Ca^2+ and subsequently scrapped of in 10 ml PBS pr harvesting plate. The cells suspension were centrifuged at 1500×G in three minutes before resuspension in 15 mM Tris-HCl pH 7,5 buffer containing 2 mM MgCl2; 0,3 mM EDTA and 1 mM EGTA (buffer A). The cell suspention was homogenised and subsequently centrifuged at 40000×G in 30 minutes. The membrane-pellet was resuspended in buffer A containing 250 mM sucrose, alliquoted and stored at −80° C.
Affinity assay description: The assay is performed as a filter-based competition-binding in a 50 mM Tris pH 7.4 assay buffer containing 120 mM NaCl and 3 mM MnCl2. App 0.05 nM ^3H-AE93103 was mixed with test compounds before addition of 0.15 μg of a homogenised NK3 membrane preparation in a total volume of 300 μl. The assay plate is incubated for 90 min at RT before content of the wells is transferred using a cell-harvester to GF/C filter plates, which has been pretreated with 0.1% PEI. The filter is washed 3 times with 1 ml an ice-cold 50 mM Tris buffer, pH 7,4. The filter is dried and added scintillation liquid before the plate is counted in a topcounter 5 minutes pr well.
The total binding, which comprised less than 10% of added radioligand, was defined using assay buffer whereas the non-specific binding was defined in the presence of 1 μM SR142801. The non-specific binding constituted ˜10% of the total binding. Data points are expressed in percent of the specific binding of ^3H-AE93103 and the […] (concentration causing 50% inhibition of ^3H-AE93103 specific binding) are determined by non-linear regression analysis using a sigmoidal variable slope curve fitting.

The conditions of series [1]: cited from earlier work.
For series [2] the following is noted: in vivo; cited from earlier work.
The conditions of series [3]: cited from earlier work. The source holds these as a separate data set.

As to `CCNn1c(C)c(C(=O)N[C@H](c2cccc(F)c2)C2CCC2)c2cnccc2c1=O` [Example 1a, 2-Ethylamino-3-methyl-1-oxo-1,2-dihydro-[2,6]naphthyridine-4-carboxylic acid [(S)-cyclobutyl-(3-fluoro-phenyl)-methyl]-amide], at human NK3 receptor, the Ki is 58 nM. Turning to `CCCNn1c(C)c(C(=O)N[C@H](c2ccc(F)cc2)C2CC2)c2cnccc2c1=O` [Example 1b, 3-Methyl-1-oxo-2-propylamino-1,2-dihydro-[2,6]naphthyridine-4-carboxylic acid [(S)-cyclopropyl-(4-fluoro-phenyl)-methyl]-amide], the Ki at human NK3 receptor came out at 720 nM. On to `CCCNn1c(C)c(C(=O)N[C@H](c2cccc(Cl)c2)C2CC2)c2cnccc2c1=O` [Example 1c, 3-Methyl-1-oxo-2-propylamino-1,2-dihydro-[2,6]naphthyridine-4-carboxylic acid [(S)-(3-chloro-phenyl)-cyclopropyl-methyl]-amide], for which the Ki at human NK3 receptor was found to be 540 nM. In the case of `CCCNn1c(C)c(C(=O)NC(c2ccccc2F)C2CCC2)c2cnccc2c1=O` (stereo not drawn) [Example 1d, 3-Methyl-1-oxo-2-propylamino-1,2-dihydro-[2,6]naphthyridine-4-carboxylic acid [cyclobutyl-(2-fluoro-phenyl)-methyl]-amide], at human NK3 receptor, the Ki was 160 nM.

Regarding `CCCNn1c(C)c(C(=O)N[C@H](c2cccc(F)c2)C2CCC2)c2cnccc2c1=O` [Example 1e, 3-Methyl-1-oxo-2-propylamino-1,2-dihydro-[2,6]naphthyridine-4-carboxylic acid [(S)-cyclobutyl-(3-fluoro-phenyl)-methyl]-amide], the Ki on human NK3 receptor is 33 nM. In the case of `CCCNn1c(C)c(C(=O)N[C@@H](CC)c2ccccc2)c2cnccc2c1=O` [Example 1g, 3-Methyl-1-oxo-2-propylamino-1,2-dihydro-[2,6]naphthyridine-4-carboxylic acid ((S)-1-phenyl-propyl)-amide], the Ki on human NK3 receptor was 430 nM. Same read-out and setting: with `CCNn1c(C)c(C(=O)N[C@H](c2cccc(F)c2)C2CCC2)c2ncccc2c1=O` [Example 2a, 6-Ethylamino-7-methyl-5-oxo-5,6-dihydro-[1,6]naphthyridine-8-carboxylic acid [(S)-cyclobutyl-(3-fluoro-phenyl)-methyl]-amide] the figure was 91 nM; with `CCNn1c(C)c(C(=O)N[C@H](c2cccc(F)c2)C2CCC2)c2ccncc2c1=O` [Example 3a, 2-Ethylamino-3-methyl-1-oxo-1,2-dihydro-2,7-naphthyridine-4-carboxylic acid [(S)-cyclobutyl-(3-fluoro-phenyl)-methyl]-amide], 110 nM. As for `CC(=O)N(C)C1(c2ccccc2)CCN(CCC[C@]2(c3ccc(Cl)c(Cl)c3)CCCN(C(=O)c3ccccc3)C2)CC1` [Osanetant], the solubility entry in series [1] was “poor”. Moreover, in series [2], the bioavailability result is listed as “poor”, the blood-brain barrier penetration result is “poor” and the clearance entry is on record as “relatively high”. In addition, in series [3] (delusions, hallucinations and paranoia), the “Effect in clinical trials, in particular on positive symptoms of psychosis” value was “superior to placebo”. Take `CC[C@H](NC(=O)c1c(O)c(-c2ccccc2)nc2ccccc12)c1ccccc1` [talnetant]: the solubility entry in series [1] was “poor”. Besides, in series [2], the bioavailability result is listed as “poor”, the blood-brain barrier penetration result is “poor” and the clearance entry is on record as “relatively high”. In addition, in series [3] (schizophrenics), the “Effect on cognitive behaviour of schizophrenics in clinical trials” value was “ameliorate the cognitive behaviour”.
